Laboratory results published in paper PMC10579241, “Impact of trifluoromethyl and sulfonyl groups on the biological activity of novel aryl-urea derivatives: synthesis, in-vitro, in-silico and SAR studies” (Scientific Reports, 2023).
In brackets after ≈: the same amount, converted by molar mass. Marks after values point to notes of the source that are not given here.

Legend:
[1] = test system: Candida albicans; test: MIC by serial dilution (agar wells), C. albicans; format: cell-based
[2] = test system: prostate cancer (PC3); test: cells; format: cell-based; details: Homo sapiens, 48 h
[3] = test system: BRCA1; test: qRT-PCR, BRCA1 in PC3 cells; format: cell-based, human; details: versus negative samples
[4] = test system: human lung carcinoma (A549); test: cells; format: cell-based
[5] = test system: HCT116; test: DNA damage, comet assay, HCT116; format: cell-based, human
[6] = test system: Bacillus mycoides; test: microbe, parasite or virus in culture; format: cell-based
[7] = test system: Escherichia coli; test: Agar well diffusion, E. coli; format: cell-based; details: Escherichia coli, read-out: Inhibition zones diameter
[8] = test system: PC3; test: DNA damage, comet assay, PC3; format: cell-based, human
[9] = test system: HCT116; test: DNA fragmentation assay, HCT116; format: cell-based, human
[10] = test system: Escherichia coli; test: MIC by serial dilution (agar wells), E. coli; format: cell-based
[11] = test system: PACA2; test: DNA fragmentation assay, PACA2; format: cell-based, human
[12] = test system: FASN; test: qRT-PCR, FASN in HCT116 cells; format: cell-based, human; details: versus negative samples
[13] = test system: pancreatic cancer cell line (PACA2); test: cells; format: cell-based; details: Homo sapiens, PaCa-2, 48 h
[14] = test system: PC3; test: DNA fragmentation assay, PC3; format: cell-based, human
[15] = test system: PALB2; test: qRT-PCR, PALB2 in PACA2 cells; format: cell-based, human; details: versus negative untreated sample
[16] = test system: Candida albicans; test: Agar well diffusion, C. albicans; format: cell-based
[17] = test system: hepatocellular carcinoma cell line (HePG2); test: cells; format: cell-based; details: Homo sapiens, 48 h
[18] = test system: TP53; test: qRT-PCR, TP53 in HCT116 cells; format: cell-based, human; details: versus negative samples
Description: RNA was extracted from pancreas, prostate, lung and liver cell lines using a total RNA purification kit (Qiagen, Hilden, Germany) according to the manufacturer's instructions. An aliquot of RNA was diluted in RNase-free water to estimate RNA quantity. Aliquots were used immediately for reverse transcription (RT). cDNA synthesis was performed on extracted RNA, which was treated with DNase (Invitrogen, Germany) to remove any possible DNA contamination. The DNase-treated RNA was reverse transcribed into first-strand cDNA using the RevertAid First Strand cDNA Synthesis kit (Fermantas) according to the manufacturer's instructions. Determination of the pancreas, prostate, lung and liver cell line cDNA copy number was carried out using StepOne™ Real-Time PCR System from Applied Biosystems (Thermo Fisher Scientific, Waltham, MA USA). Gene expressions were detected by real-time PCR, which was performed using the Rotor-Gene Q system (Qiagen Company). A 25 µL reaction mixture consisted of 12.5 µL SYBR® Premix Ex TaqTM (TaKaRa, Biotech. Co. Ltd.), 0.5 µL of each primer (10 PMole) (Table 1), 1 µL cDNA (50 ng) and 10.5 µL RNase free water. The optimum amplification conditions were chosen empirically according to each tested gene. Generally, the amplification conditions include initial incubation (95.0 °C for 3 min), then 40 cycles of amplification with denaturation (95.0 °C for 15 s), annealing (55.0 °C for 30 s) and extension (72.0 °C for 30 s) steps then 71 cycles which started at 60.0 °C and then increased about 0.5 °C every 10 s up to 95.0 °C. Mean cycle threshold (Ct) values of triplicate samples are used for analysis. The Ct value indicates the fractional cycle number at which the amount of amplified target reaches a fixed threshold. Data from real-time PCR were analyzed using 2^−∆∆Ct method[38]–[40]. Data were represented as the fold change in target gene expression normalized to a House-Keeping gene (HKG) and relative to the control. β-actin was used as a HKG to normalize input RNA amount, RNA quality and reverse transcription efficiency.

[19] = test system: osteosarcoma cell line (HOS); test: cells; format: cell-based; details: 48 h; for IC50: MTT
[20] = test system: CDKN2A; test: qRT-PCR, CDKN2A in PACA2 cells; format: cell-based, human; details: versus negative untreated sample
[21] = test system: BRCA2; test: qRT-PCR, BRCA2 in PC3 cells; format: cell-based, human; details: versus negative samples
[22] = 0.00488 mg/mL, 150 µL in DMSO, 15 mm agar well
[23] = 0.00975 mg/mL, 150 µL in DMSO, 15 mm agar well
[24] = 0.0195 mg/mL, 150 µL in DMSO, 15 mm agar well
[25] = 0.0391 mg/mL, 150 µL in DMSO, 15 mm agar well
[26] = 0.0781 mg/mL, 150 µL in DMSO, 15 mm agar well
[27] = 0.1563 mg/mL, 150 µL in DMSO, 15 mm agar well
[28] = 0.3125 mg/mL, 150 µL in DMSO, 15 mm agar well
[29] = 0.625 mg/mL, 150 µL in DMSO, 15 mm agar well
[30] = 1.25 mg/mL, 150 µL in DMSO, 15 mm agar well
[31] = 2.50 mg/mL, 150 µL in DMSO, 15 mm agar well
[32] = 5.00 mg/mL, 150 µL in DMSO, 15 mm agar well
[33] = 10.0 mg/mL, 150 µL in DMSO, 15 mm agar well
[34] = read-out: Minimum inhibition concentration (MIC)

Question: Which zone of inhibition at 4.88 µg/mL [1, 22] does the source give for `Cc1ccc(S(=O)(=O)NC(=O)Nc2ccc(C(F)(F)F)cc2)cc1` [Compound 7, 4-Methyl-N-[(4-{trifluoromethyl}phenyl)carbamoyl]benzenesulfonamide] here?
Answer: 16 mm

Question: What about the zone of inhibition at 9.75 µg/mL [1, 23] of the same compound?
Answer: 17 mm

Question: What about the zone of inhibition at 19.5 µg/mL [1, 24] of the same compound?
Answer: 17 mm

Question: What about the zone of inhibition at 39.1 µg/mL [1, 25] of the same compound?
Answer: 17 mm

Question: And the zone of inhibition at 78.1 µg/mL [1, 26]?
Answer: 17 mm

Question: And the zone of inhibition at 156.3 µg/mL [1, 27]?
Answer: 18 mm

Question: What about the zone of inhibition at 312.5 µg/mL [1, 28] of the same compound?
Answer: 19 mm

Question: And the zone of inhibition at 625 µg/mL [1, 29]?
Answer: 22 mm

Question: What about the zone of inhibition at 1250 µg/mL [1, 30] of the same compound?
Answer: 25 mm

Question: What about the zone of inhibition at 2500 µg/mL [1, 31] of the same compound?
Answer: 27 mm

Question: And the zone of inhibition at 5000 µg/mL [1, 32]?
Answer: 28 mm

Question: And the zone of inhibition at 10000 µg/mL [1, 33]?
Answer: 29 mm

Question: What about the MIC [1, 34] of the same compound?
Answer: 4.88 µg/mL (≈ 13.6 µM)

Question: And the mortality at 100 µg/mL ([2]; 100 μg/mL)?
Answer: 100%

Question: And the IC50 ([2]; MTT)?
Answer: 91.3 ± 0.28 µM

Question: And the “BRCA1 gene expression level” value [3]?
Answer: decreased significantly

Question: What about the mortality at 100 µg/mL ([4]; A549, 48 h, 100 μg/mL) of the same compound?
Answer: 100%

Question: And the IC50 ([4]; MTT, 48 h)?
Answer: 86.5 ± 1.4 µM

Question: What about the “DNA damaged cells % (mean ± SEM)” value [5] of the same compound?
Answer: 25.56 ± 0.66^a %

Question: And the “Class 0 (no tail), number of cells” value ([5]; of 400 cells analyzed)?
Answer: 298

Question: What about the “Class 1 (tail length < diameter of nucleus), number of cells” value ([5]; of 400 cells analyzed) of the same compound?
Answer: 29

Question: And the “Class 2 (tail length between 1 and 2 × the diameter of nucleus), number of cells” value ([5]; of 400 cells analyzed)?
Answer: 38

Question: What about the “Class 3 (tail length > 2 × the diameter of nucleus), number of cells” value ([5]; of 400 cells analyzed) of the same compound?
Answer: 35

Question: And the “No. of cells, Comets” value ([5]; of 400 cells analyzed)?
Answer: 102

Question: And the Inhibition zones diameter ([6]; B. mycoides, 200 μL of 10 mg/mL in DMSO in 15 mm holes, overnight 37 °C)?
Answer: 36 ± 1.25 mm

Question: What about the zone of inhibition at 10000 µg/mL ([6]; Bacillus mycoides, read-out: Inhibition zones diameter) of the same compound?
Answer: 36 mm

Question: And the zone of inhibition at 10000 µg/mL [7]?
Answer: 30 ± 0.74 mm

Question: What about the “DNA damaged cells % (mean ± SEM)” value [8] of the same compound?
Answer: 25.78 ± 1.44^a %

Question: And the “Class 0 (no tail), number of cells” value ([8]; of 400 cells analyzed)?
Answer: 297

Question: What about the “Class 1 (tail length < diameter of nucleus), number of cells” value ([8]; of 400 cells analyzed) of the same compound?
Answer: 38

Question: And the “Class 2 (tail length between 1 and 2 × the diameter of nucleus), number of cells” value ([8]; of 400 cells analyzed)?
Answer: 36

Question: What about the “Class 3 (tail length > 2 × the diameter of nucleus), number of cells” value ([8]; of 400 cells analyzed) of the same compound?
Answer: 29

Question: What about the “No. of cells, Comets” value ([8]; of 400 cells analyzed) of the same compound?
Answer: 103

Question: And the “Change (DNA fragmentation versus untreated cells)” value (“Change” below) [9]?
Answer: 26.20

Question: What about the “DNA fragmentation % M ± SEM” value ([9]; IC50 concentration, 24 h) of the same compound?
Answer: 37.1 ± 0.52^a %

Question: What about the Inhibition ([9]; doxorubicin = 0.00) of the same compound?
Answer: 24.76

Question: And the zone of inhibition at 4.88 µg/mL [10, 22]?
Answer: 15 mm

Question: What about the zone of inhibition at 9.75 µg/mL [10, 23] of the same compound?
Answer: 16 mm

Question: What about the zone of inhibition at 19.5 µg/mL [10, 24] of the same compound?
Answer: 17 mm

Question: And the zone of inhibition at 39.1 µg/mL [10, 25]?
Answer: 18 mm

Question: What about the zone of inhibition at 78.1 µg/mL [10, 26] of the same compound?
Answer: 19 mm

Question: And the zone of inhibition at 156.3 µg/mL [10, 27]?
Answer: 20 mm

Question: What about the zone of inhibition at 312.5 µg/mL [10, 28] of the same compound?
Answer: 22 mm

Question: What about the zone of inhibition at 625 µg/mL [10, 29] of the same compound?
Answer: 23 mm

Question: What about the zone of inhibition at 1250 µg/mL [10, 30] of the same compound?
Answer: 25 mm

Question: What about the zone of inhibition at 2500 µg/mL [10, 31] of the same compound?
Answer: 26 mm

Question: And the zone of inhibition at 5000 µg/mL [10, 32]?
Answer: 27 mm

Question: And the zone of inhibition at 10000 µg/mL [10, 33]?
Answer: 28 mm

Question: What about the MIC [10, 34] of the same compound?
Answer: 4.88 µg/mL (≈ 13.6 µM)

Question: What about the “Change” value [11] of the same compound?
Answer: 23.10

Question: And the “DNA fragmentation % M ± SEM” value ([11]; IC50 concentration, 24 h)?
Answer: 35.2 ± 0.68^a %

Question: And the Inhibition ([11]; doxorubicin = 0.0)?
Answer: 28.33

Question: And the “FASN gene expression level” value [12]?
Answer: suppression

Question: What about the mortality at 100 µg/mL ([13]; 100 μg/mL) of the same compound?
Answer: 100%

Question: And the IC50 ([13]; MTT)?
Answer: 44.4 ± 0.57 µM

Question: What about the “Change” value [14] of the same compound?
Answer: 24.5

Question: And the “DNA fragmentation % M ± SEM” value ([14]; IC50 concentration, 24 h)?
Answer: 36.1 ± 0.60^a %

Question: And the Inhibition ([14]; doxorubicin = 0.0)?
Answer: 21.89

Question: And the “PALB2 gene expression level” value [15]?
Answer: significantly reduced

Question: And the Inhibition zones diameter ([16]; C. albicans, 200 μL of 10 mg/mL in DMSO in 15 mm holes, overnight 37 °C)?
Answer: 37 ± 1.20 mm

Question: And the zone of inhibition at 10000 µg/mL ([16]; Candida albicans, read-out: Inhibition zones diameter)?
Answer: 37 mm

Question: And the mortality at 100 µg/mL ([17]; 100 μg/mL)?
Answer: 100%

Question: What about the IC50 ([17]; MTT) of the same compound?
Answer: 97.4 ± 1.11 µM

Question: And the “TP53 gene expression level” value [18]?
Answer: suppression

Question: And the mortality at 100 µg/mL ([19]; Homo sapiens, 100 μg/mL)?
Answer: 100%

Question: And the IC50 ([19]; Homo sapiens)?
Answer: 102 µM

Question: What about the IC50 [19] of the same compound?
Answer: 102.1 ± 0.95 µM

Question: And the “CDKN2A gene expression level” value [20]?
Answer: significantly reduced

Question: What about the “BRCA2 gene expression level” value [21] of the same compound?
Answer: decreased significantly
